This is an account of results in PMC5405074, “Receptor-Mediated Melanoma Targeting with Radiolabeled α-Melanocyte-Stimulating Hormone: Relevance of the Net Charge of the Ligand” (Frontiers in Endocrinology, 2017).

The subject of one series is B16-F1 cells. Description: Internalization by cultured B16-F1 cells. Format: cell-based, mouse. As for the experimental part:
B16-F1 cells were seeded in six-well plates and incubated overnight in MEM at 37°C. For the internalization experiments, MEM was replaced by 1 mL MBM (see above) as internalization buffer. After a 1-h incubation at 37°C, 74 kBq of radioligand (^111In-labeled peptides) was added, and the plates were incubated for different time periods. Non-specific internalization was determined by addition of 50 µL of a 1 µM α-MSH solution to the incubation mixture. After the desired incubation times, the cells were extensively washed with MBM kept at 37°C to remove excess radioligand. Incubation in 2 mL ice-cold acid buffer (acetate-buffered Hank’s balanced salt solution, pH 5) for 10 min allowed dissociation of surface-bound ligand. After collection of the acid buffer fraction, the cells were rinsed once with cold MBM, and the washings were pooled with the acid buffer fraction. The cells were washed again with MBM kept at 37°C, lysed in a 1% Triton X-100 solution, and finally transferred to tubes for quantification. The radioactivity of all collected fractions was measured in a γ-counter. A counting plate underwent the same treatment as the plate incubated for the longest time, but its cells were detached with 0.02% EDTA in PBS instead of being lysed with the Triton X-100 solution. Cells from three wells were collected, counted, and thus allowed for normalization of the results obtained. Results were expressed as percent of the added dose per million cells.
Figure 3 Determination of internalization of [^111In] DOTA-NAP-D-Asp-D-Asp (A) and [^111In]DOTA-Phospho-MSH2-9 (B) by cultured B16-F1 cells exposed to the peptides at 37°C for 0.5, 2, and 3.5 h. Surface-bound radioligand was released by an acid buffer wash, and internalized radioligand was determined by lysing cells with detergent. Results are expressed in percent of the added dose per million cells.

In series [1] the test system is B16-F1 tumor-bearing mice. Description: Biodistribution of ^111In-labeled peptides in B16-F1 melanoma-bearing mice. Format: in vivo, mouse (B6D2F1). As for the experimental part: About 5 × 10^5 B16-F1 cells were implanted subcutaneously to female B6D2F1 mice (C57BL/6 × DBA/2F1 hybrids; breeding pairs obtained from IFFA-CREDO, France). Seven days later, 185 kBq of ^111In-labeled ligand in 200 µL PBS/0.1% BSA were injected intravenously into the lateral tail vein of each mouse. Control mice were injected with a mixture of the tracer and 50 µg α-MSH to determine the non-specific uptake of radioligand. The animals were sacrificed 4, 24, and 48 h postinjection, dissected, and the tissues of interest collected, rinsed of excess blood, and weighed. The radioactivity emitted by each organ was measured in a γ-counter to determine the tissue uptake as percentage of the injected dose (ID) per gram of tissue. The total of injected radioactivity per animal was determined by extrapolation from the counts of a standard collected from the injection solution for each animal. Urine samples were collected at 10, 15, and 20 min and 4 h after injection and kept frozen at −80°C until use. Urine (1 vol) was mixed with methanol (2 vol) to precipitate proteins, and the supernatant was analyzed by RP-HPLC/γ-detection, as described in Ref. ([12]).
Results are expressed as means ± SEM, unless otherwise stated. The statistical evaluation of data was performed using the one- or two-way ANOVA test. When significant overall effects were obtained by ANOVA, multiple comparisons were made with the Bonferroni correction. P < 0.05 was considered statistically significant. The area under the curve (AUC) was calculated with the GraphPad Prism 6 software for the indicated period of time, using the mean tissue uptake value at each time point.

Details of series [2]: method as in 2 sources, ref 37 = [37]; PMID 9574445; doi:10.3109/08860229809045104; 37 Kok RJ Haas M Moolenaar F de Zeeuw D Meijer DK . Drug delivery to the kidneys and the bladder with the low molecular weight protein lysozyme . Ren Fail ( 1998 ) 20 : 211 – 7 . 10.3109/0886022980904 ||| ref 38 = [38]; PMID 11578896; doi:10.1016/S0969-8051(01)00241-4; 38 Akizawa H Arano Y Mifune M Iwado A Saito Y Mukai T Effect of molecular charges on renal uptake of 111 In-DTPA-conjugated peptides . Nucl Med Biol ( 2001 ) 28 : 761 – 8 . 10.1016/S0969-8051(01)00241. Conditions: urinary excretion; cited from earlier work.

The next series deals with MC1R. Particulars: cited from earlier work.
For series [3] the following is noted: cited from earlier work. From the text:
Another approach to reduce uptake of radioactivity by the kidneys is coinjection of radiopeptides with basic amino acids. […] This method was first applied for ^111In-labeled DTPA-octreotide ([31], [32]) and ^90Y-labeled DOTA-[Tyr^3]-octreotide ([32], [33]).

The conditions of series [4]: in vivo; cited from earlier work.

Read-outs that look alike come from different tables or passages of the source. Non-standard residues stand in square brackets, D forms with d. Residues, ends and D or L forms follow the SMILES beside them. *: point of attachment. DOTA = O=C(O)CN1CCN(CC(=O)O)CCN(CC(=O)*)CCN(CC(=O)O)CC1; Nle = CCCC[C@H](N)C(=O)O

Turning to `CCCC[C@H](NC(C)=O)C(=O)N[C@@H](CC(=O)O)C(=O)N[C@@H](Cc1c[nH]cn1)C(=O)N[C@H](Cc1ccccc1)C(=O)N[C@@H](CCCNC(=N)N)C(=O)N[C@@H](Cc1c[nH]c2ccccc12)C(=O)NCC(=O)N[C@@H](CCCCNC(=O)CN1CCN(CC(=O)O)CCN(CC(=O)O)CCN(CC(=O)O)CC1)C(=O)N[C@H](CC(=O)O)C(=O)N[C@H](CC(=O)O)C(=O)O` [[^111In]DOTA-NAP-D-Asp-D-Asp] [metal not drawn] (Ac-[Nle]DH[dF]RWGK(DOTA)[dD][dD]-OH; N-terminus and C-terminus assumed), in the series with B16-F1 cells (37°C, 0.5, 2 and 3.5 h, 74 kBq radioligand), the “Internalization profile (in words)” value is listed as “excellent internalization profiles”. Besides, in the series on B16-F1 cells (37°C, 3.5 h), the “Internalization plateau (in words)” value is recorded as “not quite reached”. Besides, the “Uptake by other organs (in words)” value in series [1] (4–48 h) is “Other organs did not substantially accumulate the radiopeptide”. In series [1] (4 h after injection), the “Kidney uptake higher than that of [^111In]DOTA-NAP-amide” value was 25%. In series [1] (24 h after injection), the “Radioactive load of kidney higher than with the reference peptide” value came to 70%.

Consider “succinylated lysozyme: succinylated lysozyme, compared to the non-succinylated molecule with six amino groups”, for which the “Excretion compared to non-succinylated molecule (in words)” value in series [2] is given as “dramatically increased”.

As to “Ac-Nle-cyclo[Asp-His-D-Phe-Arg-Trp-Lys]-NH2 (sidechain bridge or staple) [melanotan II]”, the “Binding affinity (in words)” value with MC1R (cyclic analog compared with α-MSH) is recorded as “increased binding affinity”.

[Nle^4, D-Phe^7]-α-MSH [NDP-MSH]: the “Binding affinity (in words)” value in the series on MC1R (linear analog compared with α-MSH) was “increased binding affinity”.

Regarding `NCCCC[C@@H](N)C(=O)O` [D-Lys], the “Effect of coinjection on tumor uptake (in words)” value in series [3] is reported as “without affecting tumor uptake”. The “Reduction of kidney uptake of radiopeptides by coinjection” value in series [3] (coinjected with ^111In-/^90Y-labeled octreotide peptides) is “up to 65%”.

For the molecule “[^111In-DOTA-Nle^4,Asp^5,D-Phe^7,Lys^11(Suc)]-α-MSH4-11-carboxylate”, in the series with MC1R, the “MC1R affinity (in words)” value is “lower MC1R affinity”. Besides, in series [4], the “AUC (4–48 h), tumor-to-kidney” value is 0.62; the “Kidney uptake (in words)” value is “lowest kidney uptake”; the “Tumor uptake (in words)” value was “reduced uptake by melanoma tumors”.
